Here are results for one compound from patent publication US11572590B2, “Methods for evaluating tumor cell spheroids using 3D microfluidic cell culture device” (Dana-Farber Cancer Institute, Inc., priority 2017, dated 2023).

Common to all, as to assay: SelectScreen Kinase Profiling, single point inhibition and IC50 for off-target kinases
Holding throughout (type): biochemical

Experiment [1] deals with T1, off-target kinases (Homo sapiens, UniProt Q8IW41).
T1 sequence (Q8IW41 1-473): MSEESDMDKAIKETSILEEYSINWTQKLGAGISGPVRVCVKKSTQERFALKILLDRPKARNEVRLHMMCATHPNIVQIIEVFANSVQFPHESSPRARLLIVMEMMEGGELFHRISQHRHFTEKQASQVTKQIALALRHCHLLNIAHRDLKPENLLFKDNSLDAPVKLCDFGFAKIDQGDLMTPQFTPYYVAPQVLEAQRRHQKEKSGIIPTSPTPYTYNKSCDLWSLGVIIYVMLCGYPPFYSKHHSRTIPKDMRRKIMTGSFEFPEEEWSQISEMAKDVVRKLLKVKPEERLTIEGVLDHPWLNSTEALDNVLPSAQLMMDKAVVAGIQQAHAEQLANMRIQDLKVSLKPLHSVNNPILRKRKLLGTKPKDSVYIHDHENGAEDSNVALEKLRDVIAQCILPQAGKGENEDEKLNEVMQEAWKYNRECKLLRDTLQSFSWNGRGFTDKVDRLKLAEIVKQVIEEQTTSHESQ
The conditions noted are these: MAPKAPK5 (PRAK), ZLYTE, ATP Km app.

The target in experiment [2] is off-target kinases (Homo sapiens, UniProt P80192). The following applies: MAP3K9 (MLK1), ATP Km app, ZLYTE.
Experiment [3] addresses T2, off-target kinases (Homo sapiens, UniProt Q9NRM7).
T2 sequence (Q9NRM7 1-1088): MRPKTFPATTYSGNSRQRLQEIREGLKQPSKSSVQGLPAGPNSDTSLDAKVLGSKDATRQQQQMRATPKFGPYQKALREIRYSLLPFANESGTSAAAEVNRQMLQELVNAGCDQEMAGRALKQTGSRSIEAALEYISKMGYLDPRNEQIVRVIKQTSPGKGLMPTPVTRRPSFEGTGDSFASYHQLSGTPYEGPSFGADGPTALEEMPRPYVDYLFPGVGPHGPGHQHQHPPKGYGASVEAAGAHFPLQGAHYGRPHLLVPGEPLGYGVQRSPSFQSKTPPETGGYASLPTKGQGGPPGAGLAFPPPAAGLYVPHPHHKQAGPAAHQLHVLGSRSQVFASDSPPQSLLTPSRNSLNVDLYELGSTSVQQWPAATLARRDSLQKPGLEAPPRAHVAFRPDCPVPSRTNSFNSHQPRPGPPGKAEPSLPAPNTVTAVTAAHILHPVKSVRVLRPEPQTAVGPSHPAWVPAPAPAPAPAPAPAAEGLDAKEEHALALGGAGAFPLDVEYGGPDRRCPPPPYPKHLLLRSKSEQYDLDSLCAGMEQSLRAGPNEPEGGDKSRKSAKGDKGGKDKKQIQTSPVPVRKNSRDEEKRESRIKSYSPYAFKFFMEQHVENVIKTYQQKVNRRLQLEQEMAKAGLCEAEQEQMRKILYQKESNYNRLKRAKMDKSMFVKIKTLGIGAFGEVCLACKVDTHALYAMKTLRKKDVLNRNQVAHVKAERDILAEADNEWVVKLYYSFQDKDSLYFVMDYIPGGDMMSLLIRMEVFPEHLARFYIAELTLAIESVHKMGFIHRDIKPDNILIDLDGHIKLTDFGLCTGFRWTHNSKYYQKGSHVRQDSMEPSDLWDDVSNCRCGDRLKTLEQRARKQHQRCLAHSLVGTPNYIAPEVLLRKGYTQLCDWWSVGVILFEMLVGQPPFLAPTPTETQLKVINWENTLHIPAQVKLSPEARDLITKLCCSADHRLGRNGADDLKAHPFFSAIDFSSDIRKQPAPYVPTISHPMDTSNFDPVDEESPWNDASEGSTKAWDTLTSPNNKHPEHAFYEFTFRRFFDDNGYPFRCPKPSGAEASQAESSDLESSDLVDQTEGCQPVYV
The conditions noted are these: LATS2, LanthaScreen Binding. On the technique in general: Time-resolved FRET reads energy transfer from a long-lived donor to a nearby acceptor.

Experiment [4] addresses off-target kinases (Homo sapiens, UniProt Q9NQU5). The conditions noted are these: PAK6, ZLYTE, ATP Km app.

Where two headings read alike, the source gives them in different places.

What is called inhibition is the drop in the measured response relative to a control, in per cent.

Chain of off-target kinases (Homo sapiens, UniProt Q9NQU5) (Q9NQU5 whole entry): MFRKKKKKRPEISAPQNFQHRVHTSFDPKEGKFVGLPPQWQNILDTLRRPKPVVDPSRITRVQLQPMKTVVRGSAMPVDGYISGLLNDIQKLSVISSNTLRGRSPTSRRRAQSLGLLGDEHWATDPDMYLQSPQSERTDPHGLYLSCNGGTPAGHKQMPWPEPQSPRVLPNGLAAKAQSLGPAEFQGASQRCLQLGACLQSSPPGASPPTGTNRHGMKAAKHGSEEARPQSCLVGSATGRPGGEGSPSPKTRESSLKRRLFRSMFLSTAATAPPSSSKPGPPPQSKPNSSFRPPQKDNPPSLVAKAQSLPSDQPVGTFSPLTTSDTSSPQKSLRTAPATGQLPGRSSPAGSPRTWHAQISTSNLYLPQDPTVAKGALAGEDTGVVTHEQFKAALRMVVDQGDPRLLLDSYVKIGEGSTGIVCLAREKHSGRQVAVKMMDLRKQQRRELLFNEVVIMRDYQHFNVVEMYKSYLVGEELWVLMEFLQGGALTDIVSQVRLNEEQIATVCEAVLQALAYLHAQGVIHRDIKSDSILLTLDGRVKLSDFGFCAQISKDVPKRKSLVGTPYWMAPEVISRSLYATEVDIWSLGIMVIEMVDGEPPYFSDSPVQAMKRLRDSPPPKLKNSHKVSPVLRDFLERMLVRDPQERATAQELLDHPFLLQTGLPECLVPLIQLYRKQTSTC
Chain of off-target kinases (Homo sapiens, UniProt P80192) (P80192 whole entry): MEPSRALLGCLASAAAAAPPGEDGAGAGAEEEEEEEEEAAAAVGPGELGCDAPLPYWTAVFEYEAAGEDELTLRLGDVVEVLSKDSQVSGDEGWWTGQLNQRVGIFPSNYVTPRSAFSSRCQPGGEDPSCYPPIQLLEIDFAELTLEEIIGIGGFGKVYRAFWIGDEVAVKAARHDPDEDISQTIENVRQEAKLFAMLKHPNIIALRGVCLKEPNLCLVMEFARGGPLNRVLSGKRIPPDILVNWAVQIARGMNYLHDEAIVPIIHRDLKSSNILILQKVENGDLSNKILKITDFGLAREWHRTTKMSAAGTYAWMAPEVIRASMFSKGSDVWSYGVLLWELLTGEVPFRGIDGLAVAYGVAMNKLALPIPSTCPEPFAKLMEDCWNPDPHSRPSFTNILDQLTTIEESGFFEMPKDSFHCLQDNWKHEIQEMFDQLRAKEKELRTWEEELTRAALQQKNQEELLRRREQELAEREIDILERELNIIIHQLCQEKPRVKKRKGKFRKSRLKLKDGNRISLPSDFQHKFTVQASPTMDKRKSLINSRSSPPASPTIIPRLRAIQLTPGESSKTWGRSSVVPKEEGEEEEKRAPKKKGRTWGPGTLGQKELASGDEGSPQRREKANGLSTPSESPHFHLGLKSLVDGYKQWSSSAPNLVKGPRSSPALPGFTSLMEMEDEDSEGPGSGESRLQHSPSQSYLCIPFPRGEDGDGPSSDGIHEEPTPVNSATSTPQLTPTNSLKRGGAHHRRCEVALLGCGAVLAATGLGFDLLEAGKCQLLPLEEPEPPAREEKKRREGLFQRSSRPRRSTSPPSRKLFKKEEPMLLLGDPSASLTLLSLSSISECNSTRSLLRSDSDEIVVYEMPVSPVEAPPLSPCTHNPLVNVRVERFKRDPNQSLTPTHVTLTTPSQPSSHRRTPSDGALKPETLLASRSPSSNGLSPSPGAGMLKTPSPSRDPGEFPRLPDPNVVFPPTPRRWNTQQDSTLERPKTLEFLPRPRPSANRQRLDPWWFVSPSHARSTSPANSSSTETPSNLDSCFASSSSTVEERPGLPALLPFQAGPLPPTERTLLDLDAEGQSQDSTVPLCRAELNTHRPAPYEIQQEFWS

As for `N#Cc1cc(-c2ncnc(Nc3ccc(N4CCN(C5COC5)CC4)cc3)n2)ccc1OC1CCOCC1` [Compound 1, 5-(4-((4-(4-(oxetan-3-yl)piperazin-1-yl)phenyl)amino)-1,3,5-triazin-2-yl)-2-((tetrahydro-2H-pyran-4-yl)oxy)benzonitrile], the inhibition at off-target kinases [1] (read-out: % Inhibition 1) was 6%; at off-target kinases [1] (read-out: % Inhibition 2) it was 7%; at off-target kinases [1] (read-out: % Inhibition Avg) it was 6%; at off-target kinases [2] (read-out: % Inhibition 1), 68%; at off-target kinases [2] (read-out: % Inhibition 2), 73%; on off-target kinases [2] (read-out: % Inhibition Avg) it was 70%. Also, the inhibition on off-target kinases [3] (read-out: % Inhibition 1) is 23%; at off-target kinases [3] (read-out: % Inhibition 2) it was 25%; at off-target kinases [3] (read-out: % Inhibition Avg) it was 24%; on off-target kinases [4] (read-out: % Inhibition 1) it was 9%; at off-target kinases [4] (read-out: % Inhibition 2), 4%; at off-target kinases [4] (read-out: % Inhibition Avg) it was 6%.
